Measured values: patent US20050119301A1, “Treatment of restenosis” (priority 2001, published 2005)

Columns and labels:
[1] = system: rat isolated aortic rings; test: Vasodilatory capacity in noradrenaline pre-constricted aortic rings and mechanism of action (Protocol 2a/2b); conditions: for vasodilatory response: effect of high KCl levels: KCl 40 mM; for vasodilatory response: effect of nitro-L-arginine (NOLA): NOLA 10 μM; for vasodilatory response: effect of ODQ: ODQ 10 μM; for vasodilatory response: effect of removal of the endothelium: denuded vs intact endothelium; for vasodilatory response: effect of indomethacin: indomethacin 10 μM
Method: Male Sprague-Dawley rats (250±50 g) were gassed with 80% CO2 and 20% O2 until killed. The thoracic aorta was excised and quickly placed in ice-cold Krebs modified solution composed of NaCl […], […] 4.7 mM, MgSO4 7H2O 1.17 mM, NaHCO3 25 mM, KH2PO4 1.18 mM, CaCl2 2.5 mM, glucose 11 mM and EDTA 0.03 mM. It was then trimmed of fat and connective tissue and cut into 2-3 mm wide rings. Each ring was mounted on two parallel stainless steel hooks in a single water-jacketed 3 ml organ bath containing modified Krebs solution maintained at 37° C. and bubbled with 95% O2 plus 5% CO2. The lower hook was attached to a movable support leg and the upper hook to an FTO3 force transducer (Grass Scientific Instruments, Mitutoyo, Japan) for isometric recordings. Changes in force were amplified (Quadbridge amplifier, Scientific Concepts Inc., Victoria, Australia) and recorded on a MacLab 8E data acquisition system (Adinstruments Pty Ltd., NSW, Australia) linked to an Apple computer (Apple Computer Inc, Cupertina, Calif.). Rings were set at an initial tension of 2 g and allowed to equilibrate for 30 minutes after which time they were re-set to 2 g tension before the commencement of each experimental protocol.
A full concentration response to noradrenaline was obtained. From this the concentration producing a submaximal contraction of approximately 80% was selected (0.03-0.3 μM). The ring was then constricted with this submaximal concentration and allowed to plateau before full concentration-relaxation curves were obtained to β-estradiol and Cpds. 5, 7, 8 and 12 and the vehicle DMSO (at equi-volume). Only one compound was studied with any one ring from any one animal.
Full relaxation curves were obtained to Cpds. 5, 7, 8 and 12 and β-estradiol in the absence and presence of the endothelium (rings were denuded of endothelium by gentle rotation of the lumen against a rough surface), the nitric oxide synthase inhibitor nitro-L-arginine (NOLA 10 μM; with the exception of Cpd. 8, due to limited supply of the compound), KCl 40 mM (to inhibit endothelium derived hyperpolarising factor), the cyclo-oxygenase inhibitor indomethacin (10 μM) and the soluble guanylate cyclase inhibitor 1H-[1,2,4]oxadiazolo[4,3-a]quinoxalin-1-one (ODQ; 10 μM). Only one compound with only one intervention was tested on any one ring from any one animal.
Contractile responses are expressed in g tension (mean+standard error of the mean). Dilatory responses are expressed as a percentage of the contractile force generated by the pre-constricting agent used. Individual concentration-response curves for noradrenaline and acetylcholine±the interventions used were fitted to a logistic equation of the form […] where E is the response, M is the maximum response and K is the concentration eliciting 50% of the maximum response (ie neg log EC50).

[2] = system: Vascular smooth muscle cells (VSMC) derived from internal mammary artery (IMA); test: Serum-induced VSMC proliferation, [3H]-thymidine incorporation; assay type: cell-based, human; conditions: for proliferation of IMA-derived VSMC (in words) / proliferation of IMA-derived VSMC at high concentrations (in words): 2.5% FBS; for proliferation of IMA-derived VSMC (in words): 0.01-100 mM tested, Cpd. 7 effect from 0.1 mM up to 1 mM
Method: Vascular smooth muscle cells (VSMC) derived from internal mammary artery (IMA) were cultured in 10% FBS-DMEM. Cells were grown to confluence in LG (glucose 5 mM)-medium then trypsinized, diluted with 10% FBS-LG medium to about 10,000 cells/ml and 1 ml of suspension was) aliquoted into four 24-well plates. Cells were then allowed to grow for 2 days to visual confluence. LG serum-free media was changed for 48 h to synchronize most cells at Go/G1.
After 24 h of serum-free medium, cells were treated with the compounds (Cpd. 5, Cpd. 7, Cpd. 8 or Cpd. 12) for 4 h and FBS was added (final concentration 2.5%) over night (18-20 hours). 4 wells were allocated for each treatment:
Cell proliferation was induced by a variety of growth factors such as serum and platelet derived growth factor (PDGF).
Media was changed to LG serum-free DMEM and cells were treated with [^3H]-thymidine at 1 μCi/well for 3 hours. Cells were washed twice with ice cold Dulbecco's PBS. Next, ice cold 0.2M HClO4 (1 ml/well) was added and cells were incubated on ice for 30 min. Cells were then washed three times with 0.5 ml/well of ice cold 0.2M HClO4. Media (0.5 ml/well of 0.2 M NaOH) was replaced and cells were incubate at 37° C. After 1 hour, cells were treated with acetic acid (6%, 0.2 ml/well), transferred to scintillation vials with 3 ml scintillation liquid (Instagel) and counted for 2 min per vial.

[3] = system: human LDL; test: Prevention of tocopherol-mediated peroxidation (anti-TMP test); assay type: biochemical; conditions: 10 mM
Method: The test indirectly assesses the ability of a compound to synergise with a-tocopherol in human LDL undergoing mild and chemically controlled oxidation. Oxidation is measured by the accumulation of cholesterol ester hydroperoxides at a time point corresponding to 20% consumption of endogenous a-tocopherol.
Briefly, ascorbate and ubiquinol-10-free LDL (1 mM in apoB) was supplemented with an aliquot of a stock solution of the compound to be tested. The mixture was incubated at 37° C. for 10 min and subsequently oxidized at 37° C. with a low flux of water-soluble ROO generated from AAPH (4 mM). The time-dependent consumption of LDL a-tocopherol and accumulation of cholesteryllinolate hydroperoxide (Ch18:2-OOH) were monitored by HPLC with electrochemical and post-column chemiluminescence detection, respectively. The effectiveness of an antioxidant, assigned as its anti-TMP index (redox index), was defined as the relative amounts of Ch18:2-OOH formed with versus without the added antioxidant measured after 20% consumption of the endogenous a-tocopherol in the control sample (ie. in the absence in the antioxidant). […] Butylated hydroxytoluene (BHT, 10 mM) was used as a positive control.

[4] = Peroxyl radical scavenging, AAPH-induced oxidation of linoleate; assay type: biochemical; parameters: dose or concentration left out as unconfirmed
Method: Peroxyl radicals are natural side-products of a number of enzymes, including lipoxygenases and cyclo-oxygenase. Peroxyl radicals were generated by the thermo-labile azo-initiator AAPH. AAPH-induced oxidation of linoleate was performed as described previously (Pryor et al., 1993), except that a lower linoleate concentration was used and SDS was omitted. An aliquot of a linoleate stock solution was added to PBS at 37° C. to give a final concentration of […]. Oxidation was initiated by the addition of AAPH (87.5 mM final concentration) in the absence and presence of either 10 mM of Cpd. 7, Cpd. 8 or Cpd. 12 or 500 mM ascorbate (positive control). Formation of linoleate hydroperoxide was monitored by UV 234 nm using a Perkin Elmer's UV/Vis Lambda 40 spectrophotometer. The test was performed twice as single analysis. An appropriate concentration of alcohol (ethanol and isopropanol; 0.13%-0.2% v/v) was included in the respective control samples.

| Compound | vasodilatory response: effect of high KCl levels [1] | vasodilatory response: effect of nitro-L-arginine (NOLA) [1] | vasodilatory response: effect of ODQ [1] | vasodilatory response: effect of removal of the endothelium [1] | vasodilatory response: effect of indomethacin [1] | proliferation of IMA-derived VSMC (in words) [2] | proliferation of IMA-derived VSMC at high concentrations (in words) ([2]; 10 mM and 100 mM) | LDL protective action in the presence of Vitamin E (in words) [3] | inhibition of AAPH-induced oxidation of linoleic acid, 234 nm absorbency (in words) [4] | cell damage ([2]; 10 mM and 100 mM) |
| --- | --- | --- | --- | --- | --- | --- | --- | --- | --- | --- |
| O=C1c2ccc(O)cc2OCC1c1ccc(O)cc1 (stereo not shown) [Cpd. 5] | inhibited | inhibited | inhibited | inhibited | did not influence | relatively inactive |  |  |  |  |
| Oc1ccc(C2COc3cc(O)ccc3C2O)cc1 (stereo not shown) [Cpd. 7] | inhibited | trend towards inhibition of these responses by NOLA but this was not statistically significant | inhibited | inhibited | did not influence | significantly inhibited proliferation | relative increase in proliferation | low levels of activity | As for peroxyl radicals, neither Cpd. 7 nor Cpd. 8 were able to inhibit |  |
| Oc1ccc(C2COc3cc(O)ccc3C2O)cc1 (stereo not shown) [Cpd. 8] | inhibited |  | but not by ODQ | inhibited | potentiated |  | caused a significant increase in proliferation | low levels of activity | As for peroxyl radicals, neither Cpd. 7 nor Cpd. 8 were able to inhibit |  |
| Oc1ccc(C2=Cc3ccc(O)cc3OC2)cc1 [Cpd. 12] | inhibited |  |  | inhibited |  | did not appear to inhibit cellular proliferation |  | strong LDL protective action (low redox index) | significantly inhibited the time-dependent increase in 234 nm absorbency | caused significant cell damage |
